This passage reports IC50 results from US20250163047A1, “HETEROCYCLIC COMPOUNDS, COMPOSITIONS THEREOF, AND METHODS OF TREATMENT THEREWITH” (BeiGene, Ltd., priority 2022, published 2025).

One test addresses T1, Cbl (aa49-434) (Homo sapiens, UniProt P22681).
T1 construct: Cbl (aa49-434, in-house); made in house
T1 sequence (P22681 49-434): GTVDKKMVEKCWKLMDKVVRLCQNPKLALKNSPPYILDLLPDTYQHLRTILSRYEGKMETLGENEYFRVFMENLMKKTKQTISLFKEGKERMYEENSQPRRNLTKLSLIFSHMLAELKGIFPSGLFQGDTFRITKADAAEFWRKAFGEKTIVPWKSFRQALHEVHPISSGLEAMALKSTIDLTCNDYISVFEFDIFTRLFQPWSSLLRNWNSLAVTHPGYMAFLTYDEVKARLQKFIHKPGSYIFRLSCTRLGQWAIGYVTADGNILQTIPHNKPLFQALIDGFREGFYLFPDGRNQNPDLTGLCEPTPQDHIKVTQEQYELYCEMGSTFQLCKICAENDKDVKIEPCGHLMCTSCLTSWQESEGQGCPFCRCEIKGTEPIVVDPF
Put plainly: Co-expressed Cbl with BirA biochemical assay (CBL/E2-Ub binding, HTRF). The note with it: 0.6 nM Cbl co-expressed with BirA, read-out: co-express CBL/E2-Ub-binding assay IC50. The source says: (§1) The assay in the absence of a Cbl-b/Cbl inhibitor, where phosphorylation of Cbl-b/Cbl by the Src kinase allows UbcH5B-Ub to bind to Cbl-b/Cbl and brings the Bodipy-Fluorescein tagged ubiquitin in proximity to the streptavidin-terbium bound to the N-terminal biotinylated Avi-tagged Cbl-b/Cbl. […] The lack of a FRET signal indicates Cbl-b/Cbl is inhibited by the Cbl-b/Cbl inhibitor.
(Time-resolved FRET reads energy transfer from a long-lived donor to a nearby acceptor.)

For the next test, the target named is T2, Cbl-b (aa36-427) (Homo sapiens, UniProt Q13191).
T2 construct: Cbl-b (aa36-427, in-house); made in house
Put plainly: Co-expressed Cbl-b with BirA biochemical assay (CBLB/E2-Ub binding, HTRF). The note with it: 0.6 nM Cbl-b co-expressed with BirA, HTRF; read-out: co-express CBLB/E2-Ub-binding assay IC50.
Description: as §1

pIC50: −log10 of the molar value.

T2 sequence (Q13191 36-427): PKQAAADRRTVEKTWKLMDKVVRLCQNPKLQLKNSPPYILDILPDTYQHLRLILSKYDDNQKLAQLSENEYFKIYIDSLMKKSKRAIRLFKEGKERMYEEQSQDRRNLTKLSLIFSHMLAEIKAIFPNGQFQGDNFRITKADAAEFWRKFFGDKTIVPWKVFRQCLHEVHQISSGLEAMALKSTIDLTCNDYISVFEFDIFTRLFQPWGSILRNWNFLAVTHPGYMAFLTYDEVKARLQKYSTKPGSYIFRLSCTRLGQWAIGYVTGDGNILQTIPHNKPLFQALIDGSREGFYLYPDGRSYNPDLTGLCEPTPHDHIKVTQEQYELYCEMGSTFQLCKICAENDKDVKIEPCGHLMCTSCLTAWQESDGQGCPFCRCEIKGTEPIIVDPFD

As to `C[C@H](NCc1cc(C(=O)Nc2cncc([C@]3(c4nncn4C)C[C@@H](C)C3)c2)nc2c1CCC2(F)F)C1CCC1` [Compound C41, 4-({[(1S)-1-cyclobutylethyl]amino}methyl)-7,7-difluoro-N-{5-[(1r, 3s)-3-methyl-1-(4-methyl-1,2,4-triazol-3-yl)cyclobutyl]pyridin-3-yl}-5H,6H-cyclopenta[b]pyridine-2-carboxamide], the results for the pIC50 on Cbl (aa49-434) and on Cbl-b (aa36-427) were 8.15 and 8.82, respectively.

On to `C[C@H](NCc1cc(C(=O)Nc2cccc([C@]3(c4nncn4C)C[C@@H](C)C3)c2)c2nccn2c1)C1CCCC1` [Compound A40, 6-((((S)-1-cyclopentylethyl)amino)methyl)-N-(3-((1s,3R)-3-methyl-1-(4-methyl-4H-1,2,4-triazol-3-yl)cyclobutyl)phenyl)imidazo[1,2-a]pyridine-8-carboxamide], for which the results for the pIC50 on Cbl (aa49-434) and on Cbl-b (aa36-427) were 8.51 and 8.80, respectively.

On to `Cc1cnc2c(C(=O)Nc3cncc([C@]4(c5nncn5C)C[C@@H](C)C4)c3)cc(CNC3(C)CCC3)cn12` [Compound A80, 3-methyl-N-(5-((1s, 3s)-3-methyl-1-(4-methyl-4H-1,2,4-triazol-3-yl)cyclobutyl)pyridin-3-yl)-6-(((1-methylcyclobutyl)amino)methyl)imidazo[1,2-a]pyridine-8-carboxamide], for which the pIC50 on Cbl (aa49-434) was 7.89; at Cbl-b (aa36-427), 8.70.

Take `CC(C)CNCc1cc(C(=O)Nc2cccc([C@]3(c4nncn4C)C[C@@H](C)C3)c2)c2nccn2c1` [Compound A18, 6-((isobutylamino)methyl)-N-(3-((1s, 3s)-3-methyl-1-(4-methyl-4H-1,2,4-triazol-3-yl)cyclobutyl)phenyl)imidazo[1,2-a]pyridine-8-carboxamide]: the pIC50 at Cbl (aa49-434) is 8.22; at Cbl-b (aa36-427), 8.96.

With `C[C@H]1CCCN(Cc2cc(C(=O)Nc3cccc([C@]4(c5nncn5C)C[C@@H](C)C4)c3)nc3cc[nH]c23)C1` [Compound B4, N-(3-((1s,3R)-3-methyl-1-(4-methyl-4H-1,2,4-triazol-3-yl)cyclobutyl)phenyl)-7-(((S)-3-methylpiperidin-1-yl)methyl)-1H-pyrrolo[3,2-b]pyridine-5-carboxamide], the pIC50 at Cbl (aa49-434) was 7.92; on Cbl-b (aa36-427) it was 8.52.

As for “N-(3-((1s,3R)-3-methyl-1-(4-methyl-4H-1,2,4-triazol-3-yl)cyclobutyl)phenyl)-7′-(((S)-3-methylpiperidin-1-yl)methyl)-1′,2′-dihydrospiro[cyclopropane-1,3′-pyrrolo[3,2-b]pyridine]-5′-carboxamide [Compound C51]”, the pIC50 at Cbl (aa49-434) was 8.31; on Cbl-b (aa36-427), 8.82.

Turning to `Cn1cnnc1[C@]1(c2cncc(NC(=O)c3cc(CNCC4CCC4)c4[nH]ccc4n3)c2)C[C@H](C)C1` [Compound B40, 7-{[(cyclobutylmethyl)amino]methyl}-N-{5-[(1r, 3s)-3-methyl-1-(4-methyl-1,2,4-triazol-3-yl)cyclobutyl]pyridin-3-yl}-1H-pyrrolo[3,2-b]pyridine-5-carboxamide], the pIC50 is 8.68 on Cbl (aa49-434) and 9.00 on Cbl-b (aa36-427).

As to `Cc1cnc2c(C(=O)Nc3cccc([C@]4(c5nncn5C)C[C@@H](C)C4)c3)cc(CNCC3CCC3)cn12` [Compound A53, 6-(((cyclobutylmethyl)amino)methyl)-3-methyl-N-(3-((1s, 3s)-3-methyl-1-(4-methyl-4H-1,2,4-triazol-3-yl)cyclobutyl)phenyl)imidazo[1,2-a]pyridine-8-carboxamide], the pIC50 at Cbl (aa49-434) was 8.11; on Cbl-b (aa36-427), 8.70.

In the case of `C[C@H]1CCCN(Cc2cc(C(=O)Nc3cccc([C@]4(c5nncn5C)C[C@@H](C)C4)c3)c3nc(F)cn3c2)C1` [Compound A8, 2-fluoro-N-(3-((1s,3R)-3-methyl-1-(4-methyl-4H-1,2,4-triazol-3-yl)cyclobutyl)phenyl)-6-(((S)-3-methylpiperidin-1-yl)methyl)imidazo[1,2-a]pyridine-8-carboxamide], the pIC50 at Cbl (aa49-434) was 7.73; at Cbl-b (aa36-427) it was 8.22.

On to `C[C@H](NCc1cc(C(=O)Nc2cccc([C@]3(c4nncn4C)C[C@@H](C)C3)c2)nc2cc[nH]c12)C1CCC1` [Compound B35, 7-((((S)-1-cyclobutylethyl)amino)methyl)-N-(3-((1s,3R)-3-methyl-1-(4-methyl-4H-1,2,4-triazol-3-yl)cyclobutyl)phenyl)-1H-pyrrolo[3,2-b]pyridine-5-carboxamide], for which the pIC50 on Cbl (aa49-434) is 8.96; on Cbl-b (aa36-427) it was 9.15.

Regarding `C[C@H](NCc1cc(C(=O)Nc2cccc([C@]3(c4nncn4C)C[C@@H](C)C3)c2)nc2c(F)c[nH]c12)C1CCC1` [Compound B38, 7-((((S)-1-cyclobutylethyl)amino)methyl)-3-fluoro-N-(3-((1s,3R)-3-methyl-1-(4-methyl-4H-1,2,4-triazol-3-yl)cyclobutyl)phenyl)-1H-pyrrolo[3,2-b]pyridine-5-carboxamide], the results for the pIC50 on Cbl (aa49-434) and at Cbl-b (aa36-427) were 8.89 and 9.30, respectively.

Turning to `C[C@H](NCc1cc(C(=O)Nc2cccc([C@]3(Cc4nncn4C)C[C@@H](C#N)C3)c2)c2nccn2c1)C1CCCC1` [Compound A33, N-(3-((1r,3S)-3-cyano-1-((4-methyl-4H-1,2,4-triazol-3-yl)methyl)cyclobutyl)phenyl)-6-((((S)-1-cyclopentylethyl)amino)methyl)imidazo[1,2-a]pyridine-8-carboxamide], the results for the pIC50 on Cbl (aa49-434) and on Cbl-b (aa36-427) were 8.96 and 8.82, respectively.

For `Cc1cnc2c(C(=O)Nc3cncc([C@]4(c5nncn5C)C[C@@H](C)C4)c3)cc(CNCC3CCC3)cn12` [Compound A56, 6-{[(cyclobutylmethyl)amino]methyl}-3-methyl-N-{5-[(1r, 3s)-3-methyl-1-(4-methyl-1,2,4-triazol-3-yl)cyclobutyl]pyridin-3-yl}imidazo[1,2-a]pyridine-8-carboxamide], the pIC50 at Cbl (aa49-434) was 8.39; on Cbl-b (aa36-427), 8.82.

With `C[C@H](NCc1cc(C(=O)Nc2cccc([C@]3(c4nncn4C)C[C@@H](CC#N)C3)c2)c2nccn2c1)C1CC1` [Compound A27, N-(3-((1s,3R)-3-(cyanomethyl)-1-(4-methyl-4H-1,2,4-triazol-3-yl)cyclobutyl)phenyl)-6-((((S)-1-cyclopropylethyl)amino)methyl)imidazo[1,2-a]pyridine-8-carboxamide], the pIC50 on Cbl (aa49-434) is 8.10; on Cbl-b (aa36-427), 8.85.

Consider `Cn1cnnc1[C@]1(c2cccc(NC(=O)c3cc(CNC4(C)CCC4)c4c(n3)C(C)(C)CN4)c2)C[C@H](CC#N)C1` [Compound C21, N-(3-((1s, 3s)-3-(cyanomethyl)-1-(4-methyl-4H-1,2,4-triazol-3-yl)cyclobutyl)phenyl)-3,3-dimethyl-7-(((1-methylcyclobutyl)amino)methyl)-2,3-dihydro-1H-pyrrolo[3,2-b]pyridine-5-carboxamido], for which the pIC50 is 7.75 at Cbl (aa49-434) and 8.74 on Cbl-b (aa36-427).

For `Cn1cnnc1[C@]1(c2cccc(NC(=O)c3cc(CNCC4CCC4)c4c(n3)C(C)(C)CN4)c2)C[C@H](CC#N)C1` [Compound C30, N-(3-((1s, 3s)-3-(cyanomethyl)-1-(4-methyl-4H-1,2,4-triazol-3-yl)cyclobutyl)phenyl)-7-(((cyclobutylmethyl)amino)methyl)-3,3-dimethyl-2,3-dihydro-1H-pyrrolo[3,2-b]pyridine-5-carboxamide], the pIC50 on Cbl (aa49-434) is 8.48; at Cbl-b (aa36-427), 8.85.

For `CC(C)CNCc1cc(C(=O)Nc2cncc([C@]3(c4nncn4C)C[C@@H](C)C3)c2)c2ncc(F)n2c1` [Compound A79, 3-fluoro-6-((isobutylamino)methyl)-N-(5-((1s, 3s)-3-methyl-1-(4-methyl-4H-1,2,4-triazol-3-yl)cyclobutyl)pyridin-3-yl)imidazo[1,2-a]pyridine-8-carboxamide], the pIC50 on Cbl (aa49-434) is 8.85; on Cbl-b (aa36-427), 9.14.

For the compound `CC(C)CNCc1cc(C(=O)Nc2cncc([C@]3(c4nncn4C)C[C@@H](C)C3)c2)c2nccn2c1` [Compound A78, 6-((isobutylamino)methyl)-N-(5-((1s, 3s)-3-methyl-1-(4-methyl-4H-1,2,4-triazol-3-yl)cyclobutyl)pyridin-3-yl)imidazo[1,2-a]pyridine-8-carboxamide], the pIC50 on Cbl (aa49-434) was 8.64; on Cbl-b (aa36-427), 8.92.

`C[C@H](NCc1cc(C(=O)Nc2cncc([C@]3(c4nncn4C)C[C@@H](C)C3)c2)nc2sccc12)C1CCC1` [Compound B42, 4-({[(1S)-1-cyclobutylethyl]amino}methyl)-N-{5-[(1r, 3s)-3-methyl-1-(4-methyl-1,2,4-triazol-3-yl)cyclobutyl]pyridin-3-yl}thieno[2,3-b]pyridine-6-carboxamide]: the pIC50 at Cbl (aa49-434) is 8.33; on Cbl-b (aa36-427), 8.68.
